Results on twelve molecules are retold here after ChEMBL document CHEMBL1201862, “PubChem BioAssay data set” (2004).

Among the test systems are A549; ACHN; HCT-15; HOP-92; K562; M14; NCI-H226; OVCAR-4; RXF 393; SF-268; SK-MEL-5; SN12C; SNB-19; SR; SW-620; U-251; Hs-578T; MDA-MB-435; UACC-257.
Holding throughout (test): inhibition of tumour cell growth, NCI panel, 48 h

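Step 1: Grow cells in 96-well plates. Step 2: Expose to compound for 48 hours at 5 concentrations. Step 3: Interpolate endpoints linearly; if unreached, use highest concentration. GI50 is the concentration that inhibits growth by half.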 Activity calls are given as the source filed them. Cut-off read from the data, not from the text of the source: active = GI50 up to about 1.1 µM and inactive = higher. Residues, ends and D or L forms follow the SMILES beside them. *: point of attachment. Boc = CC(C)(C)OC(=O)*; OBn = c1ccc(CO*)cc1; Bn = c1ccc(C*)cc1

Take `CCCC(=O)c1ccc(=O)n(C)c1`: the GI50 is > 100 µM (inactive) with A549; > 100 µM (inactive) with ACHN; greater than 100 µM in the test on HCT-15; > 100 µM (inactive) with HOP-92; > 100 µM (inactive) with K562; > 100 µM (inactive) in the test with M14. Also, the GI50 in the test on NCI-H226, with OVCAR-4, with RXF 393, with SF-268, with SK-MEL-5 and with SN12C was > 100 µM (inactive) in each case. For the same molecule, the GI50 in the test on SNB-19, with SR, with SW-620 and in the test on U-251 was > 100 µM (inactive) throughout.
As to `COc1ccc(CC2NC(=O)/C=C/CC(C(C)C3OC3c3ccccc3)OC(=O)C(CC(C)C)OC(=O)C(C)CNC2=O)cc1Cl` (configuration not stated), the GI50 in the test on A549 is < 1e-05 µM (active); in the test with ACHN, 2.81e-05 µM (active); in the test on HCT-15 it was 1.06e-05 µM; in the test with HOP-92 it was 0.000205 µM (active); in the test with Hs-578T, 1.78e-05 µM (active); in the test on K562 it was < 1e-05 µM (active). Moreover, the GI50 is 1.04e-05 µM (active) in the test on M14; < 1e-05 µM (active) in the test with MDA-MB-435; 2.4e-05 µM (active) in the test on NCI-H226; < 1e-05 µM (active) in the test on RXF 393; 4.55e-05 µM (active) with SF-268; < 1e-05 µM (active) in the test on SK-MEL-5. Moreover, the GI50 in the test on SN12C was 2.38e-05 µM (active); in the test with SR it was < 1e-05 µM (active); in the test with SW-620 it was 1.36e-05 µM (active); in the test on U-251 it was 2.56e-05 µM (active); in the test on UACC-257, 4.07e-05 µM (active).
As to `CC(=O)OCC1OC(NC(=S)N/N=C2\CC(c3ccccc3)Oc3ccccc32)C(OC(C)=O)C(OC(C)=O)C1OC(C)=O` (configuration not stated), the GI50 in the test with A549 is > 100 µM (inactive); with ACHN, > 100 µM (inactive); with HCT-15, greater than 100 µM; with HOP-92 it was > 100 µM (inactive); in the test on K562, > 100 µM (inactive); with M14, > 100 µM (inactive). The GI50 with NCI-H226, in the test with OVCAR-4, with RXF 393, in the test on SF-268, with SK-MEL-5 and in the test with SN12C was > 100 µM (inactive) each time. Besides, the GI50 with SNB-19, in the test on SR, with SW-620, with U-251 and with UACC-257 was > 100 µM (inactive) each time.
In the case of `O=C(c1ccc(Cl)cc1)N(C(=S)N1CCN(c2ccccc2)CC1)c1ccccc1`, the GI50 is > 100 µM (inactive) in the test on A549; > 100 µM (inactive) with ACHN; greater than 100 µM with HCT-15; > 100 µM (inactive) in the test on HOP-92; > 100 µM (inactive) with K562; > 100 µM (inactive) in the test with M14. Besides, the GI50 in the test on NCI-H226 is 53.8 µM (inactive); in the test with OVCAR-4, > 100 µM (inactive); with RXF 393 it was > 100 µM (inactive); in the test on SF-268, > 100 µM (inactive); in the test on SK-MEL-5, > 100 µM (inactive); in the test on SN12C it was > 100 µM (inactive). Further, the GI50 in the test on SNB-19, in the test on SR, in the test with SW-620, with U-251 and in the test on UACC-257 was > 100 µM (inactive) throughout.
In the case of `CCN(CC)Cc1ccccc1CC(=O)N1c2ccccc2C(=O)Nc2cccnc21`, the GI50 was > 100 µM (inactive) in the test on A549; > 100 µM (inactive) with ACHN; greater than 100 µM with HCT-15; > 100 µM (inactive) in the test with HOP-92; > 100 µM (inactive) in the test with Hs-578T; 79.6 µM (inactive) in the test with K562. In addition, the GI50 in the test with M14, with MDA-MB-435, in the test with NCI-H226, in the test on OVCAR-4, with RXF 393 and in the test with SF-268 was > 100 µM (inactive) each time. Moreover, the GI50 was > 100 µM (inactive) in the test with SK-MEL-5; > 100 µM (inactive) in the test on SN12C; > 100 µM (inactive) in the test on SNB-19; 34.3 µM (inactive) with SR; > 100 µM (inactive) in the test with SW-620; > 100 µM (inactive) in the test with U-251. In addition, the GI50 in the test on UACC-257 was > 100 µM (inactive).
For `c1ccc(/N=c2/[nH]c3ccccc3s/c2=N/c2ccccc2)cc1`, the GI50 in the test with A549 is > 100 µM (inactive); in the test on ACHN it was > 100 µM (inactive); with HCT-15 it was greater than 100 µM; in the test on HOP-92, > 100 µM (inactive); with Hs-578T, > 100 µM (inactive); in the test on K562, > 100 µM (inactive). Also, the GI50 is > 100 µM (inactive) with MDA-MB-435; > 100 µM (inactive) in the test with NCI-H226; > 100 µM (inactive) in the test on OVCAR-4; 48.4 µM (inactive) with RXF 393; > 100 µM (inactive) in the test on SF-268; > 100 µM (inactive) with SK-MEL-5. In addition, the GI50 in the test with SN12C, with SNB-19, with SR, in the test on SW-620, in the test with U-251 and with UACC-257 was > 100 µM (inactive) in each case.
Turning to `CCCS(=O)(=O)/C(=C(\c1ccc(Br)cc1)S(=O)(=O)CCC)c1ccc(Br)cc1`, the GI50 in the test with A549 is > 10 µM (inactive); in the test on ACHN, > 10 µM (inactive); in the test with HCT-15, greater than 10 µM; with HOP-92 it was > 10 µM (inactive); in the test with K562 it was > 10 µM (inactive); in the test on M14, > 10 µM (inactive). In addition, the GI50 with NCI-H226, in the test on OVCAR-4, in the test with RXF 393, with SF-268, with SK-MEL-5 and in the test on SN12C was > 10 µM (inactive) throughout. The GI50 in the test on SNB-19, with SR, in the test with SW-620, in the test on U-251 and with UACC-257 was > 10 µM (inactive) in each case.
Turning to `CCOC(=O)C1=C(C)N(Cc2ccccc2)C(C)=C(C(=O)OCC)C1c1ccccc1O`, the GI50 with A549 is 29.2 µM (inactive); in the test on ACHN, 28.1 µM (inactive); with HCT-15 it was 30.1 µM; with HOP-92 it was 13.7 µM (inactive); in the test with K562, 33.4 µM (inactive); in the test with M14 it was 33.7 µM (inactive). Further, the GI50 is 19.4 µM (inactive) in the test with NCI-H226; 34.8 µM (inactive) in the test on OVCAR-4; 18.7 µM (inactive) in the test on RXF 393; 32.4 µM (inactive) in the test with SF-268; 16.1 µM (inactive) with SK-MEL-5; 28.4 µM (inactive) in the test on SN12C. Further, the GI50 in the test on SNB-19 was 43.2 µM (inactive); with SR, 15.9 µM (inactive); in the test with SW-620, 39.9 µM (inactive); in the test on U-251, 39.4 µM (inactive); with UACC-257 it was 26.9 µM (inactive).
In the case of `COc1cc(Br)c(/C=N\c2cccc3cc(OC)c(OC)cc23)cc1OC`, the GI50 in the test on A549 is > 100 µM (inactive); in the test with ACHN it was 51.5 µM (inactive); with HCT-15, 31.4 µM; in the test on HOP-92, 28.2 µM (inactive); in the test on K562, 19.9 µM (inactive); in the test with M14, 30 µM (inactive). In addition, the GI50 was 41.7 µM (inactive) with NCI-H226; 91.8 µM (inactive) in the test on OVCAR-4; 20.2 µM (inactive) in the test on RXF 393; 45.4 µM (inactive) in the test with SF-268; 36.1 µM (inactive) with SK-MEL-5; 40.6 µM (inactive) with SN12C. The GI50 in the test with SNB-19 is > 100 µM (inactive); in the test on SR, 15.5 µM (inactive); in the test on SW-620, 35.6 µM (inactive); with U-251 it was 42.5 µM (inactive); in the test with UACC-257 it was 85.7 µM (inactive).
Consider `CC(=O)O/C(C)=C\C(=O)O/N=C(\N)c1ccc(C)cc1`, for which the GI50 in the test with A549 was 40.4 µM (inactive); in the test with ACHN, 33 µM (inactive); in the test with HOP-92, 33.7 µM (inactive); with K562, 19.6 µM (inactive); in the test on M14, 28.4 µM (inactive); with NCI-H226, 28.1 µM (inactive). The GI50 was 25.8 µM (inactive) with OVCAR-4; 27.4 µM (inactive) in the test on RXF 393; 29.8 µM (inactive) in the test with SF-268; 22.3 µM (inactive) in the test on SK-MEL-5; 22 µM (inactive) with SN12C; 43.7 µM (inactive) with SNB-19. For the same molecule, the GI50 in the test on SR is 20.5 µM (inactive); in the test on SW-620, 39.4 µM (inactive); in the test with U-251 it was 19.5 µM (inactive); in the test on UACC-257, 30.8 µM (inactive).
In the case of `CC(C)[C@@H]1NC(=O)[C@@H]2N=C(O[C@H]2C)[C@H](C(C)C)NC(=O)C2N=C1O[C@H]2C`, the GI50 with A549 is > 100 µM (inactive); with ACHN, > 100 µM (inactive); in the test with HCT-15, greater than 100 µM; with HOP-92, 94.4 µM (inactive); in the test on Hs-578T it was > 100 µM (inactive); with K562, > 100 µM (inactive). Moreover, the GI50 in the test with M14, in the test with MDA-MB-435, with NCI-H226, in the test with OVCAR-4, with RXF 393 and in the test on SF-268 was > 100 µM (inactive) in each case. In addition, the GI50 in the test on SK-MEL-5, in the test with SN12C, in the test on SNB-19, in the test with SR, in the test with SW-620 and in the test with UACC-257 was > 100 µM (inactive) each time.
Consider `CC(C)CC(NC(=O)C(Cc1ccccc1)NC(=O)C(COCc1ccccc1)NC(=O)OC(C)(C)C)C(=O)OCc1ccccc1` (stereo not drawn) (Boc-Ser(Bn)-Phe-Leu-OBn; configuration not given here), for which the GI50 in the test with ACHN is 17.9 µM (inactive); with HCT-15 it was 16.3 µM; in the test on K562, 9.57 µM (inactive); in the test with M14, 37.1 µM (inactive); with MDA-MB-435 it was > 10 µM (inactive); with OVCAR-4, 42.7 µM (inactive). In addition, the GI50 in the test with SF-268 is 21.7 µM (inactive); in the test on SN12C, 25.8 µM (inactive); in the test with SNB-19, > 100 µM (inactive); in the test with SR it was 20.2 µM (inactive); in the test with SW-620, 22.1 µM (inactive); in the test with U-251 it was 22.3 µM (inactive). Also, the GI50 in the test on UACC-257 was 86.7 µM (inactive).
